Test results taken from patent US20050131045A1, “Novel crystal forms of ondansetron, processes for their preparation, pharmaceutical, compositions containing the novel forms and methods for treating nausea using them” (priority 2002, published 2005).

Assay: Solubility in C1-C3 alcohols
Assay type: physicochemical
Conditions: methanol, ethanol, propan-1-ol, propan-2-ol; room temperature
Description: Ondansetron Form B may be prepared by crystallizing ondansetron from a solution in a C1-C3 alcohol, in particular, methanol, ethanol, propan-1-ol, propan-2-ol and mixtures thereof. Ondansetron is dissolved in the C1-C3 alcohol, preferably in an amount sufficient to produce from about a 50 mM to about a 300 mM solution, more preferably from about an 85 mM to about a 150 mM solution. […] Consequently, it may be necessary to heat the mixture in order to fully dissolve it. Preferably, the mixture is refluxed until the mixture becomes a clear solution. The solution is preferably free of solid ondansetron that could potentially seed the mixture causing precipitation of ondansetron in a crystalline form other than Form B or co-crystallization of Form B with another form. Preferably, the Form B obtained by crystallization from the alcohol solution contains less than or equal to about 5% other crystalline forms of ondansetron, more preferably Form B contains less than or equal to about 1% other crystalline forms of ondansetron.

solubility in C1-C3 alcohols: limited solubility
SMILES: Cc1nccn1CC1CCc2c(c3ccccc3n2C)C1=O (racemic) [Ondansetron, (±) 1,2,3,9-Tetrahydro-9-methyl-3-[2-methyl-1H-imidazol-1-yl)methyl]-4H-carbazol-4-one]
